Patent publication US20240139219A1, “COMBINATION OF A SERCA2 INHIBITOR AND A STING ACTIVATOR FOR USE IN TREATING AND/OR PREVENTING CANCER” (Centre national de la recherche scientifique, priority 2021, published 2024)

How the values were obtained:
[1] = test system: mouse embryonic fibroblasts (MEFs); test: CellTiter-Glo Luminescent Cell Viability Assay in MEFs; assay type: cell-based; settings: MEF; ADUS-100 5 μM, TA 12.5 nM or 6.25 nM, single or combined; viability 24 h after treatment (FIG. 6B)
Description: (§1) FIG. 6: Inhibition of SERCA2 (ATP2A2) in combination with STING agonist increases inflammatory responses in mouse embryonic fibroblasts (MEFs). • (A) MEFs were cultured for 24 h prior to 6 h stimulation with ADUS-100 (5 μM) in combination or not with 12.5 nM or 6.25 nM of thapsigargin (TA). Graphs present fold increase lfnβ mRNA levels, as compared to unstimulated cells. • (B) MEFs were cultured for 24 h prior to 6 h stimulation with ADUS-100 (5 μM) in combination or not with 12.5 nM or 6.25 nM of TA. Graphs present viability level, as compared to unstimulated cells.
(§2) Murine embryonic fibroblasts (MEF) and murine pancreatic cancer cell lines (KPC and Panc02) were maintained in Dulbecco's modified Eagle's medium (DMEM) supplemented with 10% fetal bovine serum (FBS), 1% penicillin/streptomycin and 1% glutamine.
(§3) Cells were treated during 6 h with ADUS-100 (5 μM) in presence or not of thapsigargin (TA) at 12.5 nM or 6.25 nM in complete medium.
The CellTiter-Glo® Luminescent Cell Viability Assay was used to determine the number of viable cells 24 h after treatment.

[2] = test system: KPC cells; test: CellTiter-Glo Luminescent Cell Viability Assay in KPC cells; assay type: cell-based, murine; settings: ADUS-100 5 μM, TA 12.5 nM or 6.25 nM, single or combined, viability 24 h after treatment (FIG. 7B)
Description: (§4) FIG. 7: Inhibition of SERCA2 (ATP2A2) in combination of STING agonist increases inflammatory responses in cancer cell lines. • (A) The KPC murine pancreatic cell line was cultured 24 h prior to 6 h stimulation with ADUS-100 (5 μM) in combination or not with 12.5 nM or 6.25 nM TA. Graphs present fold increase Cxcl10 mRNA levels, an interferon responding gene, as compared to unstimulated cells. • (B) KPC cells were cultured 24 h prior 6 h stimulation with ADUS-100 (5 μM) in combination or not with 12.5 nM or 6.25 nM TA. Graphs present viability level, as compared to unstimulated cells. • (C) The Panco2 murine pancreatic cell line was cultured 24 h prior to 6 h stimulation with ADUS-100 (5 μM) in combination or not with 12.5 nM or 6.25 nM TA. Graphs present fold increase Cxcl10 mRNA levels, an interferon responding gene, as compared to unstimulated cells. • (D) Panco2 cells were cultured 24 h prior to 6 h stimulation with ADUS-100 (5 μM) in combination or not with 12.5 nM or 6.25 nM TA. Graphs present viability level, as compared to unstimulated cells.
(§5) Murine embryonic fibroblasts (MEF) and murine pancreatic cancer cell lines (KPC and Panc02) were maintained in Dulbecco's modified Eagle's medium (DMEM) supplemented with 10% fetal bovine serum (FBS), 1% penicillin/streptomycin and 1% glutamine. […]

[3] = test system: Panc02 cells; test: CellTiter-Glo Luminescent Cell Viability Assay in Panc02 cells; assay type: cell-based, murine; settings: ADUS-100 5 μM, TA 12.5 nM or 6.25 nM, single or combined, viability 24 h after treatment (FIG. 7D)
Description: as §4, §5

[4] = test system: mice; test: In vivo toxicity, subcutaneous injection, macroscopic observation of skin at the injection site; settings: 3 times one injection every 3 day, TA 50 nM, ADUS-100 5 μM, or both (Combi), data not shown
[5] = test system: WT-MEF cells; test: RT-qPCR of Ifnβ, Cxcl10 and Isg15 mRNA in WT-MEF stimulated with DMXAA; assay type: cell-based, murine; settings: WT-MEF under DMXAA stimulation (200 μM, 2 h) in combination with CDN-1163 (FIG. 4A)
Description: WT-MEF cells were cultured 24 h prior 2h stimulation with DMXAA (200 μM) in combination or not with CPA (A-C) or thapsigargin (D-E). Graphs present fold increase Ifnβ, Cxcl10 and Isg15 mRNA levels, as compared to unstimulated cells. Graphs present mean value from duplicates.
WT-MEF cells were cultured 24 h prior 2 h stimulation with DMXAA (200 μM) in combination or not with CDN-1163 (A-C). Graphs present fold increase […], Cxcl10 and Isg15 mRNA levels, as compared to unstimulated cells. Graphs present mean value from duplicates.
(§6) Wild type murine embryonic fibroblasts (WT-MEF) and MEF-Trex^−/−, were maintained in Dulbecco's modified Eagle's medium (DMEM) supplemented with 10% fetal bovine serum (FBS), 1% penicillin/streptomycin and 1% glutamine.
(§7) RNA was extracted using Trizol (Invitrogen) and treated with TURBO DNase (Ambion) according to manufacturer's protocols. Reverse transcription (SuperScript IV reverse transcriptase, Invitrogen) and qPCR using specific primers were performed using SYBR Green Master Mix (Takara) and LightCycler 480 cycler (Roche). mRNA levels were normalized to HSP90 mRNA levels. […]
To this aim, WT-MEFs were treated with the CDN-1163 SERCA2 agonist, and interferon response gene levels were assessed (FIG. 4).

[6] = test system: Trex1 KO MEFs; test: RT-qPCR of Ifnβ, Cxcl10 and Isg15 mRNA in Trex1 KO MEF (model of chronic STING activation); assay type: cell-based, murine; settings: Trex1-deficient MEF, 2 h treatment (FIG. 2)
Description: MEF^Trexl−/− cells were treated or not with CPA (A-C) or thapisgargin (D-E) for 2 h. Graphs present fold increase Ifnβ, Cxcl10 and Isg15 mRNA levels, as compared to unstimulated cells. Graphs present mean value from duplicates (A-C) or average of 2 independent experiments (D-F). Error bars: standard deviation.
as §6
RNA was extracted using Trizol (Invitrogen) and treated with TURBO DNase (Ambion) according to manufacturer's protocols. Reverse transcription (SuperScript IV reverse transcriptase, Invitrogen) and qPCR using specific primers were performed using SYBR Green Master Mix (Takara) and LightCycler 480 cycler (Roche). mRNA levels were normalized to HSP90 mRNA levels.
WT-MEF stimulated or not with DMXAA, a murine STING ligand which triggers STING-dependent inflammatory responses (FIG. 1); and Trex I KO MEF which is a model of chronic STING activation (FIG. 2).
WT-MEF or Trex I KO MEF were treated for 2 h with SERCA2 inhibitors thapsigargin (TA) or CPA.

[7] = biological target: SERCA2 (Homo sapiens, UniProt P16615); settings: read-out: IC50 in vitro for SERCA2 (for calcium entry); cited from earlier work
[8] = test system: mouse embryonic fibroblasts (MEFs); test: RT-qPCR of Ifnβ mRNA in MEFs stimulated with ADUS-100 with or without thapsigargin; assay type: cell-based; settings: MEF, 6 h, TA 12.5 nM or 6.25 nM in combination with ADU-S100 5 μM (FIG. 6A)
Description: as §1, §2, §3, §7

[9] = test system: KPC murine pancreatic cell line; test: RT-qPCR of Cxcl10 mRNA in KPC cells stimulated with ADUS-100 with or without thapsigargin; assay type: cell-based; settings: 6 h, TA 12.5 nM or 6.25 nM in combination with ADU-S100 5 μM (FIG. 7A)
Description: as §4, §5

[10] = test system: Panc02 murine pancreatic cell line; test: RT-qPCR of Cxcl10 mRNA in Panc02 cells stimulated with ADUS-100 with or without thapsigargin; assay type: cell-based; settings: Panc02, 6 h, TA 12.5 nM or 6.25 nM in combination with ADU-S100 5 μM (FIG. 7C)
Description: as §4, §5

Chain of SERCA2 (P16615 whole entry): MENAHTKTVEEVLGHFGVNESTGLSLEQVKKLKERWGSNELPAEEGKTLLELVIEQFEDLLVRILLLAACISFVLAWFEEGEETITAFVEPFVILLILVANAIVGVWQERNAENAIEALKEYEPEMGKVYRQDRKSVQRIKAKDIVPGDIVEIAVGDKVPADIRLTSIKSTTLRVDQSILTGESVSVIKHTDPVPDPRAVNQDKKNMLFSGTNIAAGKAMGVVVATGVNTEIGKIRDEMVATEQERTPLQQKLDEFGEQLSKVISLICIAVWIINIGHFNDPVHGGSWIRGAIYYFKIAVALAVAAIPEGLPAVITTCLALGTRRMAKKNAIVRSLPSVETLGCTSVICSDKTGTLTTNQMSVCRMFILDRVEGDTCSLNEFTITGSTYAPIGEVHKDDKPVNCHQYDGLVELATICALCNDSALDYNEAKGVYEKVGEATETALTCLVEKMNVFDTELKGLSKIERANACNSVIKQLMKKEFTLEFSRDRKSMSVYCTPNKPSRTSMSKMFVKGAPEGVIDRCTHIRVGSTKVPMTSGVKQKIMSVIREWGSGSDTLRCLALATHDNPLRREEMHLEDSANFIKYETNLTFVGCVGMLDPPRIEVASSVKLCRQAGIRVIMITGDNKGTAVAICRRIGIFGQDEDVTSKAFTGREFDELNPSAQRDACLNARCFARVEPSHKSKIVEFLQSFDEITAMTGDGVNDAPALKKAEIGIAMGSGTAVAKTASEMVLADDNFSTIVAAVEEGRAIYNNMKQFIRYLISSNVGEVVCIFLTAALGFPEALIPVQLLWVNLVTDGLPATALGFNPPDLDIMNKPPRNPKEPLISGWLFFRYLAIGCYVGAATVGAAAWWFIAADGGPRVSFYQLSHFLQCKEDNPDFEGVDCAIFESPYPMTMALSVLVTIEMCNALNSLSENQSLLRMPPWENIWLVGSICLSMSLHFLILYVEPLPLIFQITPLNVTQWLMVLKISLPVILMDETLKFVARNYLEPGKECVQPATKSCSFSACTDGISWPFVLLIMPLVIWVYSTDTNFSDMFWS

Structure (SMILES)	cell toxicity (viability level) [1]	cell toxicity (viability level) [2]	cell toxicity (viability level) [3]	macroscopic observation of skin at the injection site (signs of toxicity) [4]	IFN-β gene expression [5]	CXCL10 mRNA levels [6]	IFN-β mRNA levels [6]	ISG15 mRNA levels [6]	IC50 [7]	induced inflammation marker Interferon-β (IFN-β) [8]	induced inflammation marker CXCL10 cytokine [9]	induced inflammation marker CXCL10 cytokine [10]
Nc1ncnc2c1ncn2[C@@H]1O[C@@H]2COP(=O)([S-])O[C@@H]3[C@H](O)[C@@H](COP([O-])(=S)O[C@H]2[C@H]1O)O[C@H]3n1cnc2c(N)ncnc21.[Na+].[Na+] (some centres unmarked) [ADU-S100]	low cell toxicity	low cell toxicity	low cell toxicity	did not display signs of toxicity								
Cc1ccc2cccc(NC(=O)c3ccc(OC(C)C)cc3)c2n1 [CDN-1163, N-(2-methylquinolin-8-yl)-4-propan-2-yloxybenzamide]					inhibits							
CC(=O)C1=C(O)[C@@H]2[C@H]3c4c[nH]c5cccc(c45)C[C@H]3C(C)(C)N2C1=O [CPA, (6aR,11aS,11bR)-10-Acetyl-11-hydroxy-7,7-dimethyl-2,6,6a,7,11a,11b-hexahydro-9H-pyrrolo[1′,2′:2,3]isoindolo[4,5,6-cd]indol-9-one]						increase	increase	increase	< 2500 nM			
C/C=C(/C)C(=O)O[C@H]1C(C)=C2[C@H]([C@@H]1OC(=O)CCCCCCC)[C@@](C)(OC(C)=O)C[C@H](OC(=O)CCC)[C@@]1(O)[C@H]2OC(=O)[C@@]1(C)O [Thapsigargin, (3S,3aR,4S,6S,6aR,7S,8S,9bS)-6-(Acetyloxy)-4-(butyryloxy)-3,3a-dihydroxy-3,6,9-trimethyl-8-{[(2Z)-2-methylbut-2-enoyl]oxy}-2-oxo-2,3,3a,4,5,6,6a,7,8,9b-decahydroazuleno[4,5-b]furan-7-yl octanoate]	low cell toxicity	low cell toxicity	low cell toxicity	did not display signs of toxicity		increase	increase	increase	< 15 nM	potentiation	potentiation	potentiation
